# Measurements from patent US9777000B2, “Pyrazole derivative” (MOCHIDA PHARMACEUTICAL CO., LTD., priority 2013, dated 2017).
# pIC50: −log10 of the molar value.
# Target: human PDE10 (Homo sapiens (Human), UniProt Q9Y233)
# Assay: Evaluation of enzyme inhibitory activity: human PDE10 inhibitory effect (IMAP TR-FRET)
# Assay type: biochemical
# Details: cAMP substrate
# Method: (Evaluation of Enzyme Inhibitory Activity: Human PDE10 Inhibitory Effect)
# IMAP TR-FRET Phosphodiersterase Evaluation Assay Kit (Molecular Device) was used for the measurement. Ten μL of a diluted test compound having each concentration and 5 μL of the enzyme PDE10 (BPA Bioscience) that had been diluted to 2 ng/mL with 1×IMAP Reaction Buffer (prepared with 5×included with the kit, 10 mM Tris-HCl, pH=7.2, 10 mM MgCl2, 0.05% NaN3, and 0.1% BSA) containing 0.1% BSA were added to a 384-well plate (Corning). The obtained mixture was then pre-incubated at room temperature for 5 minutes. Thereafter, 5 μL of cAMP substrate solution which was included with the kit and diluted to 400 nM with 1×IMAP Reaction Buffer containing 0.1% BSA, was added to the reaction solution, and the obtained mixture was reacted at room temperature for 60 minutes. Thereafter, 60 μL of an IMAP TR-FRET Binding solution included with the kit was further added to the reaction solution, and the obtained mixture was then left for 3 hours or more. Subsequently, using ARVO SX (PerkinElmer), the fluorescent intensity of Terbium (Emission=490 nm) and TR-FRET (Emission=520 nm) in the reaction solution were measured at an excitation wavelength of 340 nm, so as to calculate the amount of the generated 5′-AMP. The count of a well to which a solvent had been added instead of the test compound was set at 0%, and the count of a well to which the enzyme PDE10 had not been added was set at 100%. Thus, the inhibitory activity of each test compound was calculated.
# The PDE10 inhibitory activity of the test compound was indicated with an IC50 value. […] The test compounds are shown in Table 3 (Table 3-1 and Table 3-2).
# Chain of human PDE10 (Q9Y233 whole entry): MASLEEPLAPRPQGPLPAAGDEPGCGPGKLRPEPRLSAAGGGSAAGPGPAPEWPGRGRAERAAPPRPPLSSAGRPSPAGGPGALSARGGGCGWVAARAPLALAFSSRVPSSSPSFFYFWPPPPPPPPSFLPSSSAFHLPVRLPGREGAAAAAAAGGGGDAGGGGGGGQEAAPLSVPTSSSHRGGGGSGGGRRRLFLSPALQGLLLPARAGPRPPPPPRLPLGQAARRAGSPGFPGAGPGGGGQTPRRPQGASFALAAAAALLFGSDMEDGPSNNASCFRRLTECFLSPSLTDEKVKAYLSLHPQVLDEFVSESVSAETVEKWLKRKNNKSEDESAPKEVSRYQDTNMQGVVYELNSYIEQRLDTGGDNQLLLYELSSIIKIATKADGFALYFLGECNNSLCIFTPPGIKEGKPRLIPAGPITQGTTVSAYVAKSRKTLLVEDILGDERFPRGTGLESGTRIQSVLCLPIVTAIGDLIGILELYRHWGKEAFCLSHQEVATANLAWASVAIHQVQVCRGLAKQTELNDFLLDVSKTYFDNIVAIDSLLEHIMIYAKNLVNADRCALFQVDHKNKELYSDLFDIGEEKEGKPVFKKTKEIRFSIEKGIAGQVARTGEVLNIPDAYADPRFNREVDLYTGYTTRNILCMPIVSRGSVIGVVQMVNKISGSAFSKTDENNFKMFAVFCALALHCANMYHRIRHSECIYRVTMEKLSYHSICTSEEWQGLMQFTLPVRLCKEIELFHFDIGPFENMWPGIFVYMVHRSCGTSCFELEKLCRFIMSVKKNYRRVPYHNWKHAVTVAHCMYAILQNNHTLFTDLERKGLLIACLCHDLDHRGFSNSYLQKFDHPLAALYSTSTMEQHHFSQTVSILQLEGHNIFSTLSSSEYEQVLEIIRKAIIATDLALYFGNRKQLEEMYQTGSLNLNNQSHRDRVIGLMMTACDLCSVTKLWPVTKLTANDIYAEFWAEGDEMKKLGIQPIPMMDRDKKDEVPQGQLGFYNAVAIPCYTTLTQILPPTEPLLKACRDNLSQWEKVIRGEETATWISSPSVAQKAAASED
row,pIC50,Molecule
1,> 8.30,"Cc1cc(C)nc(-c2cnn(C)c2C(=O)Nc2ccn3nc(N4CCCC4)nc3c2)c1 [Example 4.32, 4-(4,6-dimethylpyridin-2-yl)-1-methyl-N-(2-(pyrrolidin-1-yl)-[1,2,4]triazolo[1,5-a]pyridin-7-yl)-1H-pyrazole-5-carboxamide]"
2,> 8.30,"Cc1cncc(-c2cnn(C)c2C(=O)Nc2ccn3nc(N4CCC[C@@H]4C)nc3c2)n1 [Example 4.6, (S)-1-methyl-4-(6-methylpyrazin-2-yl)-N-(2-(2-methylpyrrolidin-1-yl)-[1,2,4]triazolo[1,5-a]pyridin-7-yl)-1H-pyrazole-5-carboxamide]"
3,> 8.30,"Cn1ncc(-c2nc(C(F)F)cs2)c1C(=O)Nc1ccn2nc(-c3ccccc3)nc2c1 [Example 3.15, 4-(4-(difluoromethyl)thiazol-2-yl)-1-methyl-N-(2-phenyl-[1,2,4]triazolo[1,5-a]pyridin-7-yl)-1H-pyrazole-5-carboxamide]"
4,> 8.30,"CCc1csc(-c2cnn(C)c2C(=O)Nc2ccn3nc(-c4ccccc4)nc3c2)n1 [Example 3.18, 4-(4-ethylthiazol-2-yl)-1-methyl-N-(2-phenyl-[1,2,4]triazolo[1,5-a]pyridin-7-yl)-1H-pyrazole-5-carboxamide]"
5,> 8.30,"Cn1ncc(-c2nc(C(F)F)cs2)c1C(=O)NC1CCn2cc(-c3ccc(F)cc3)nc2C1 (stereo not shown) [Example 2.28, 4-(4-(difluoromethyl)thiazol-2-yl)-N-(2-(4-fluorophenyl)-5,6,7,8-tetrahydroimidazo[1,2-a]pyridin-7-yl)-1-methyl-1H-pyrazole-5-carboxamide]"
6,> 8.30,"(R)-N-(6-fluoro-2-(2trifluoromethyl)pyrrolidin-1-yl)-[1,2,4]triazolo[1,5-a]pyridin-7-yl)-1-methyl-4-(6-methylpyridin-2-yl)-1H-pyrazole-5-carboxamide [Example 4.11]"
7,> 8.30,"Cn1ncc(-c2nc(C(F)F)c(Cl)s2)c1C(=O)Nc1ccn2nc(N3CCCC3)nc2c1 [Example 4.26, 4-(5-chloro-4-(difluoromethyl)thiazol-2-yl)-1-methyl-N-(2-(pyrrolidin-1-yl)-[1,2,4]triazolo[1,5-a]pyridin-7-yl)-1H-pyrazole-5-carboxamide]"
8,> 8.30,"Cc1cc(C)nc(-c2cnn(C)c2C(=O)Nc2cc3nc(-c4ccc(F)cc4)nn3cc2F)c1 [Example 3.54, 4-(4,6-dimethylpyridin-2-yl)-N-(6-fluoro-2-(4-fluorophenyl)-[1,2,4]triazolo[1,5-a]pyridin-7-yl)-1-methyl-1H-pyrazole-5-carboxamide]"
9,> 8.30,"Cc1nc(-c2cnn(C)c2C(=O)NC2CCn3nc(N4CCCC4)nc3C2)sc1C (stereo not shown) [Example 5.45, 4-(4,5-dimethylthiazol-2-yl)-1-methyl-N-(2-(pyrrolidin-1-yl)-5,6,7,8-tetrahydro-[1,2,4]triazolo[1,5-a]pyridin-7-yl)-1H-pyrazole-5-carboxamide]"
10,> 8.30,"Cc1cccc(-c2cnn(C)c2C(=O)NC2CCn3cc(-c4ccccc4)nc3C2)n1 (stereo not shown) [Example 2.9, 1-methyl-4-(6-methylpyridin-2-yl)-N-(2-phenyl-5,6,7,8-tetrahydroimidazo[1,2-a]pyridin-7-yl)-1H-pyrazole-5-carboxamide]"
11,> 8.30,"COc1ccccc1-c1nc2n(n1)CCC(NC(=O)c1c(-c3nc(C(F)F)cs3)cnn1C)C2 (stereo not shown) [Example 5.34, 4-(4-(difluoromethyl)thiazol-2-yl)-N-(2-(2-methoxyphenyl)-5,6,7,8-tetrahydro-[1,2,4]triazolo[1,5-a]pyridin-7-yl)-1-methyl-1H-pyrazole-5-carboxamide]"
12,> 8.30,"Cn1ncc(-c2cccc(C(F)(F)F)n2)c1C(=O)Nc1ccn2nc(N3CCCC3)nc2c1 [Example 4.27, 1-methyl-N-(2-(pyrrolidin-1-yl)-[1,2,4]triazolo[1,5-a]pyridin-7-yl)-4-(6-(trifluoromethyl)pyridin-2-yl)-1H-pyrazole-5-carboxamide]"
13,> 8.30,"Cc1ccnc(-c2cnn(C)c2C(=O)Nc2cc3nc(-c4ccccc4)nn3cc2F)n1 [Example 3.43, N-(6-fluoro-2-phenyl-[1,2,4]triazolo[1,5-a]pyridin-7-yl)-1-methyl-4-(4-methylpyrimidin-2-yl)-1H-pyrazole-5-carboxamide]"
14,> 8.30,"Cc1ccnnc1-c1cnn(C)c1C(=O)Nc1cc2nc(-c3ccccc3)nn2cc1F [Example 3.24, N-(6-fluoro-2-phenyl-[1,2,4]triazolo[1,5-a]pyridin-7-yl)-1-methyl-4-(4-methylpyridazin-3-yl)-1H-pyrazole-5-carboxamide]"
15,> 8.30,"Cc1ncc(F)c(-c2cnn(C)c2C(=O)Nc2cc3nc(-c4ccccc4)nn3cc2F)n1 [Example 3.36, 4-(5-fluoro-2-methylpyrimidin-4-yl)-N-(6-fluoro-2-phenyl-[1,2,4]triazolo[1,5-a]pyridin-7-yl)-1-methyl-1H-pyrazole-5-carboxamide]"
16,> 8.30,"Cn1ncc(-c2nc(C(F)F)cs2)c1C(=O)NC1CCn2nc(-c3ccccc3)nc2C1 (stereo not shown) [Example 5.17, 4-(4-(difluoromethyl)thiazol-2-yl)-1-methyl-N-(2-phenyl-5,6,7,8-tetrahydro-[1,2,4]triazolo[1,5-a]pyridin-7-yl)-1H-pyrazole-5-carboxamide]"
17,> 8.30,"Cc1cccc(-c2cnn(C)c2C(=O)Nc2ccn3nc(N4CCCC4)nc3c2)n1 [Example 4.31, 1-methyl-4-(6-methylpyridin-2-yl)-N-(2-(pyrrolidin-1-yl)-[1,2,4]triazolo[1,5-a]pyridin-7-yl)-1H-pyrazole-5-carboxamide]"
18,> 8.30,"Cc1sc(-c2cnn(C)c2C(=O)Nc2ccn3cc(-c4ccccc4)nc3c2)nc1C(F)F [Example 1.4, 4-(4-(difluoromethyl)-5-methylthiazol-2-yl)-1-methyl-N-(2-phenylimidazo[1,2-a]pyridin-7-yl)-1H-pyrazole-5-carboxamide]"
19,> 8.30,"Cc1cc(C)nc(-c2cnn(C)c2C(=O)Nc2cc3nc(N4CC[C@H](F)C4)nn3cc2F)c1 [Example 4.24, (S)-4-(4,6dimethylpyridin-2-yl)-N-(6-fluoro-2-(3-fluoropyrrolidin-1-yl)-[1,2,4]triazolo[1,5-a]pyridin-7-yl)-1-methyl-1H-pyrazole-5-carboxamide]"
20,> 8.30,"Cc1cnc(C)c(-c2cnn(C)c2C(=O)Nc2cc3nc(-c4ccccc4)nn3cc2F)n1 [Example 3.14, 4-(3,6-dimethyl-pyrazin-2-yl)-N-(6-fluoro-2-phenyl-[1,2,4]triazolo[1,5-a]pyridin-7-yl)-1-methyl-1H-pyrazole-5-carboxamide]"
21,> 8.30,"COc1ncnc(-c2cnn(C)c2C(=O)Nc2cc3nc(-c4ccccc4)nn3cc2F)c1C [Example 3.31, N-(6-fluoro-2-phenyl-[1,2,4]triazolo[1,5-a]pyridin-7-yl)-4-(6-methoxy-5-methylpyrimidin-4-yl)-1-methyl-1H-pyrazole-5-carboxamide]"
22,> 8.30,"Cc1nc(-c2cnn(C)c2C(=O)NC2CCn3cc(-c4ccccc4)nc3C2)cs1 (stereo not shown) [Example 2.12, 1-methyl-4-(2-methylthiazol-4-yl)-N-(2-phenyl-5,6,7,8-tetrahydroimidazo[1,2-a]pyridin-7-yl)-1H-pyrazole-5-carboxamide]"
23,> 8.30,"Cc1cncnc1-c1cnn(C)c1C(=O)Nc1cc2nc(-c3ccccc3)nn2cc1F [Example 3.33, N-(6-fluoro-2-phenyl-[1,2,4]triazolo[1,5-a]pyridin-7-yl)-1-methyl-4-(5-methylpyrimidin-4-yl)-1H-pyrazole-5-carboxamide]"
24,> 8.30,"Cn1ncc(-c2nc(C(F)F)cs2)c1C(=O)Nc1ccn2nc(N3CCCC3)nc2c1 [Example 4.25, 4-(4-(difluoromethyl)thiazol-2-yl)-1-methyl-N-(2-(pyrrolidin-1-yl)-[1,2,4]triazolo[1,5-a]pyridin-7-yl)-1H-pyrazole-5-carboxamide]"
25,> 8.30,"Cn1ncc(-c2cccc(C(F)(F)F)n2)c1C(=O)Nc1ccn2cc(-c3ccccc3)nc2c1 [Example 1.6, 1-methyl-N-(2-phenylimidazo[1,2-a]pyridin-7-yl)-4-(6-(trifluoromethyl)pyridin-2-yl)-1H-pyrazole-5-carboxamide]"
26,> 8.30,"Cn1ncc(-c2nc(C(F)F)c(Cl)s2)c1C(=O)NC1CCn2cc(-c3ccccc3)nc2C1 (stereo not shown) [Example 2.5, 4-(5-chloro-4-(difluoromethyl)thiazol-2-yl)-1-methyl-N-(2-phenyl-5,6,7,8-tetrahydroimidazo[1,2-a]pyridin-7-yl)-1H-pyrazole-5-carboxamide]"
27,> 8.30,"C=Cc1sc(-c2cnn(C)c2C(=O)NC2CCn3nc(-c4ccccc4)nc3C2)nc1C(F)F (stereo not shown) [Example 5.5, 4-(4-(difluoromethyl)-5-vinylthiazol-2-yl)-1-methyl-N-(2-phenyl-5,6,7,8-tetrahydro-[1,2,4]triazolo[1,5-a]pyridin-7-yl)-1H-pyrazole-5-carboxamide]"
28,> 8.30,"Cc1ccnc(-c2cnn(C)c2C(=O)Nc2ccn3nc(N4CC[C@H](F)C4)nc3c2)c1 [Example 4.17, (S)-N-(2-(3-fluoropyrrolidin-1-yl)-[1,2,4]triazolo[1,5-a]pyridin-7-yl)-1-methyl-4-(4-methylpyridin-2-yl)-1H-pyrazole-5-carboxamide]"
